# Several values for one entry are separate records, joined by “and”; a condition that tells them apart may be missing. Identical values can stand only once.
# Key:
# [1] = Fluid overload therapy with diuretic (Lasix) and hydration fluid via the Reprieve Cardiovascular Second Generation System: diuresis, fluid, sodium and weight outcomes; type: in vivo, human
# Method: (§1) Clinical data associated with embodiments of the present technology were obtained from patient tests conducted at the Tbilisi Heart and Vascular Center in Tbilisi, Georgia. 15 patients underwent fluid therapy in which diuretic(s) and hydration fluid were administered via the Reprieve Cardiovascular™ Second Generation System according to the methods described herein (“treatment group”). As described below, data obtained from the tests indicate that the net fluid loss and net sodium loss levels achieved represent a significant improvement over conventional methods for treating fluid overload conditions, and generally indicate that embodiments of the present technology produce improved diuresis and renal safety.
# Table 1 below indicates total urine output, net fluid loss (not including intake fluid), net fluid loss (including intake fluid), net sodium balance, and average diuretic (Lasix) dosage rate for each patient in the treatment group, as measured across a therapy timespan. […] Additionally, the average therapy timespan for the treatment group was 31 hours, whereas the average therapy timespan for standard of care therapy in the literature is approximately 5 days. […] Over the 30 days, none of the patients in the treatment group regained the weight that lost during therapy or were readmitted for additional treatment.
# As also shown in Table 1, the average net sodium balance for all patients in the treatment group decreased by nearly 800 millimoles (mmol) over the therapy timespan. When normalized over a 24-hour period, the average and median net sodium balance was −14 grams (g) and −15 g respectively.
# [2] = human, in vivo
# Method: as §1
# Estimated glomerular filtration rate (eGFR) is a measure of kidney function and stage of kidney disease, and is based on patient factors including blood creatinine and a patient's age, body size, and gender.
# Blood pressure measurements of the patients in the treatment group serve as another indication that the fluid therapy was well received by the patients. For example, the average mean arterial pressure (MAP) of patients dropped from 90.1 mmHg to 88.2 mmHg at the time of patient discharge, and then to 87.2 mmHg after 30 days. Additionally, average systolic pressure of the patients dropped from 121 mmHg to 119 mmHg at the time of patient discharge, and then to 117 mmHg after 30 days.
# [3] = average of 15 treatment group patients, average therapy timespan 31 h
# [4] = individual patient, over that patient's therapy timespan, Lasix plus hydration fluid
# [5] = normalized over a 24-hour period
structure (smiles),measurement,setting,value
"NS(=O)(=O)c1cc(C(=O)O)c(NCc2ccco2)cc1Cl [Lasix, Furosemide]",decrease of average net sodium balance,"[1]; all treatment group patients, over the therapy timespan",~800 mmol
same,"Net Fluid Loss (including oral fluid intake), average",[1]; [3],"−5,919 ml"
same,"Net Fluid Loss (not including oral fluid intake), average",[1]; [3],"−6,948 ml"
same,"Total Urine, average",[1]; [3],"12,744 ml"
same,Net Fluid Loss (including oral fluid intake),[1]; [4],"−4,868 ml and −4,247 ml and −2,232 ml and −10,787 ml and −1,021 ml and −6,276 ml and −5,625 ml and −3,636 ml and −10,299 ml and −3,724 ml and −9,156 ml and −6,583 ml and −6,186 ml and −10,301 ml and −3,844 ml"
same,Net Fluid Loss (not including oral fluid intake),[1]; [4],"−6,001 ml and −4,590 ml and −2,993 ml and −11,913 ml and −2,003 ml and −8,306 ml and −6,941 ml and −3,953 ml and −12,269 ml and −4,364 ml and −9,995 ml and −7,888 ml and −7,018 ml and −11,333 ml and −4,704 ml"
same,Total Urine,[1]; [4],"14,158 ml and 11,456 ml and 6,329 ml and 19,728 ml and 3,726 ml and 12,966 ml and 12,179 ml and 6,496 ml and 20,184 ml and 8,328 ml and 17,784 ml and 14,629 ml and 12,930 ml and 21,155 ml and 9,162 ml"
same,average net fluid loss,[1]; [5],approximately 5.4 L
same,average net sodium balance,[1]; [5],-14 g
same,median net sodium balance,[1]; [5],-15 g
same,increase in net fluid loss relative to control group,"[1]; treatment group vs conventional therapy (diuretic, no replacement hydration fluid), normalized 24-hour period",over 200%
same,average weight loss,"[1]; treatment group, after 30 days",5.7 kg
same,average weight loss,"[1]; treatment group, at the time of patient discharge",6.8 kg
same,average net fluid loss (not including oral fluid intake),"[1]; treatment group, over an average therapy timespan of 31 hours",~7 L
same,patients who regained the weight lost during therapy or were readmitted for additional treatment,"[1]; treatment group, over the 30 days",none
same,average decrease of eGFR,[2],1.6
same,average increase in creatinine,[2],0.11 mg/dL
same,tolerability of the fluid therapy,[2],generally well tolerated

# Reference: patent US11950925B2, “Managing fluid levels in a patient and associated devices, systems, and methods” (REPRIEVE CARDIOVASCULAR, INC., priority 2019, dated 2024)
